From paper PMC10746543, “Design principles for cyclin K molecular glue degraders” (Nature Chemical Biology, 2023)
Several values for one entry are separate records, joined by “and”; a condition that tells them apart may be missing. Equal entries are not always repeated. Where two headings read alike, the source gives them in different places.

Experiments:
CDK9–cyclin T = biological target: T1, CDK9–cyclin T (Homo sapiens, UniProt P50750); experiment: Lanthascreen kinase binding assay, CDK9; conditions: for Lanthascreen TR-FRET signal (raw ratio), sheet CDK9: duplicates
T1 construct: purchased Thermo Fisher
Protocol: (§1) Lanthascreen experiments were performed using commercially available reagents (Thermo Fisher) and according to the manufacturer’s instructions.

CDK12–cyclin K and DDB1 = biological target: T2, CDK12–cyclin K and DDB1 (Homo sapiens, UniProt Q16531+Q9NYV4, K965R); experiment: TR-FRET ternary complex formation assay (compound titration); type: binding
T2 construct: His6–CDK12 (a.a. 713–1,052); full-length or beta-propeller B domain deletion (ΔBPB: a.a. 396–705 deleted) constructs of His6–DDB1ΔBPB, StrepII–Avi–DDB1, or His6–Spy–DDB1; made in house; host or cells: Trichoplusia ni High Five insect cells (baculovirus)
Summary of the method: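 TR-FRET ratio 520/490 nm; 70 μs delay before read to suppress background.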

CDK2–cyclin A = biological target: T3, CDK2–cyclin A (Homo sapiens, UniProt P24941); experiment: Lanthascreen kinase binding assay, CDK2; conditions: for Lanthascreen signal, sheet CDK2: raw replicates
T3 construct: purchased Thermo Fisher
Protocol: as §1

[1] = tested on: cyclin K–eGFP degradation reporter; experiment: Cyclin K reporter stability analysis (dual-color cyclin K–eGFP reporter); type: cell-based, human; conditions: source data sheet correlations; read-out: DC50
Summary of the method: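 Readout was the eGFP-to-mCherry geometric-mean ratio by flow cytometry, normalized to three DMSO controls, after 5 h drug exposure. Cells used were HEK293T–Cas9 expressing the dual-colour cyclin K–eGFP degradation reporter.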

T1 sequence (P50750 whole entry): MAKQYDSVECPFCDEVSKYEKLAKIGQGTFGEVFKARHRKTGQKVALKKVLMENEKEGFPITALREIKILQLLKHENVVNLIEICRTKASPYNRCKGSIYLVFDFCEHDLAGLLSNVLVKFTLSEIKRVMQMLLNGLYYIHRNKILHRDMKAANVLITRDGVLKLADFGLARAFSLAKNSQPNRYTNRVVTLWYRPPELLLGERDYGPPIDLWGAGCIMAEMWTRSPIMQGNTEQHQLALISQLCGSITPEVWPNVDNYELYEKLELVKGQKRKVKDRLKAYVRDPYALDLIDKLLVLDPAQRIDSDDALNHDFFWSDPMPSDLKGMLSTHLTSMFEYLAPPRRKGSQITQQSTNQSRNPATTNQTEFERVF
T1 sequence (O60563 whole entry partner): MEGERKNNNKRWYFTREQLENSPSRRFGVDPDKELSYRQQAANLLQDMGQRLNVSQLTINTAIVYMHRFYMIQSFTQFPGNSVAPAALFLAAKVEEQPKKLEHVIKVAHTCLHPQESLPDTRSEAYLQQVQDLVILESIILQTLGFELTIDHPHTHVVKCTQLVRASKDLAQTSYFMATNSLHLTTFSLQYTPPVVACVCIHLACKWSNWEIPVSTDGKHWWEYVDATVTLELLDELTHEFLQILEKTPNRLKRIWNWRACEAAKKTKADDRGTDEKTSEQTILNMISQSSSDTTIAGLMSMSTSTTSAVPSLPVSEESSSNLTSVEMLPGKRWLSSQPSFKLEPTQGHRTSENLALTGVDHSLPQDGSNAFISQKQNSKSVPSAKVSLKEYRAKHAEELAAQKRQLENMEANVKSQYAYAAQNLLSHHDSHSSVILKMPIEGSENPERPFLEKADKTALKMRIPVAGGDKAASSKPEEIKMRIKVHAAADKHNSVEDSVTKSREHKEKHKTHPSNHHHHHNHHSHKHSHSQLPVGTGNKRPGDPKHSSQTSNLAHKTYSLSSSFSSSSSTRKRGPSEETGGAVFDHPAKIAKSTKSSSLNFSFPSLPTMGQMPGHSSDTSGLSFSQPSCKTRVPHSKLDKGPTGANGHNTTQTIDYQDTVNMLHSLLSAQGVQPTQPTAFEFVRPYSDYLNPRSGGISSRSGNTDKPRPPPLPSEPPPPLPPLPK
T2 sequence (Q9NYV4 713-1052 K965R): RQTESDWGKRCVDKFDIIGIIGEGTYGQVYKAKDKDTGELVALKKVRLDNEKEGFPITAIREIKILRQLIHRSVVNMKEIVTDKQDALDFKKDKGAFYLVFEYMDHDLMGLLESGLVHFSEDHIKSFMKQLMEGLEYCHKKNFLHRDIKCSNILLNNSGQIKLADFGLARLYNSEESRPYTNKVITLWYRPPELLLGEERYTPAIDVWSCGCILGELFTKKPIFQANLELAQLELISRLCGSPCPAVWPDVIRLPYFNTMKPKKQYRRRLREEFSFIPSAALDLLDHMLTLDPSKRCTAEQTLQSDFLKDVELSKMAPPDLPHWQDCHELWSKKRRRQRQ
T2 sequence (O75909 1-267 partner): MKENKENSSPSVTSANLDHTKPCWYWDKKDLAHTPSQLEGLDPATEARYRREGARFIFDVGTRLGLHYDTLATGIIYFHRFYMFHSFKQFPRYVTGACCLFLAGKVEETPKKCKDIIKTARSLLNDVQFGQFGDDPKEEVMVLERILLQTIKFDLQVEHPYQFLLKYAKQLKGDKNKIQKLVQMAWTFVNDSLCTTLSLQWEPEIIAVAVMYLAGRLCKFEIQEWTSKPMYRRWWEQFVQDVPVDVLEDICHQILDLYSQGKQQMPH
T2 sequence (Q16531 whole entry): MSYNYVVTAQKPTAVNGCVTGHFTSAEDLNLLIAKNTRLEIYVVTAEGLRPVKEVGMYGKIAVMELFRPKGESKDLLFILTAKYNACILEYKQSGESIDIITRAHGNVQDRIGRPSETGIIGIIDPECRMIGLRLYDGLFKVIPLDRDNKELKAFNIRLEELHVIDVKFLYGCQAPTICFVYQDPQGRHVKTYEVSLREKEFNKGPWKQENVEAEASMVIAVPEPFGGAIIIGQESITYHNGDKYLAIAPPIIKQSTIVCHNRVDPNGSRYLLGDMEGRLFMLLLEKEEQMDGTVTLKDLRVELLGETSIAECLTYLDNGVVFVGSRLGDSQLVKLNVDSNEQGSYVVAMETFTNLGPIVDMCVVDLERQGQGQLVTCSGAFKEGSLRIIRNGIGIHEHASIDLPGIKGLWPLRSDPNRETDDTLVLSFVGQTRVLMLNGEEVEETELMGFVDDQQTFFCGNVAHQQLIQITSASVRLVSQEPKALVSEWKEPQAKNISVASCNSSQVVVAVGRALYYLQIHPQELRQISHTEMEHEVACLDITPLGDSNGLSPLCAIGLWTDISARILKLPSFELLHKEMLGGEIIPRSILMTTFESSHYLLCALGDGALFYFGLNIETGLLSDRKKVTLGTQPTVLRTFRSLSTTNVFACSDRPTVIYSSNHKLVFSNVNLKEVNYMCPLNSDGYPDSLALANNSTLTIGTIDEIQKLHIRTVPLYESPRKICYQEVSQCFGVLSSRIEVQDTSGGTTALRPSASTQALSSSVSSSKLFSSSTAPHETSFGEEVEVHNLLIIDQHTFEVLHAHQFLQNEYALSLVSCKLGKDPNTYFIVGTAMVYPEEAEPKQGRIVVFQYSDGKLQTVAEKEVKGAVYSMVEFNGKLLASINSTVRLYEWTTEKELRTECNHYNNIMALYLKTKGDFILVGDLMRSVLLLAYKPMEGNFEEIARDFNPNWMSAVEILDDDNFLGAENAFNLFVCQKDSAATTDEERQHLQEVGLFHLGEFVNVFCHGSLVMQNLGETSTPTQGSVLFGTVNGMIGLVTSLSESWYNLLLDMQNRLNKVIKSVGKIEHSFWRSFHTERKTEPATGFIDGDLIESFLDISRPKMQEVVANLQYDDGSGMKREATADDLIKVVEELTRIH

SMILES: Cc1ccc(C(=O)N2CSCC2C(=O)Nc2ncc(C)s2)o1 (stereo not drawn) [dCeMM4]
- IC50 (CDK9–cyclin T; Supplementary Table 2, read-out: Lanthascreen IC50 [nM] CDK9): 2460 nM
- Lanthascreen TR-FRET signal (raw ratio), sheet CDK9 (CDK9–cyclin T; compound 0.038147 nM, second titration set (r13)): 0.01401 and 0.01443
- Lanthascreen TR-FRET signal (raw ratio), sheet CDK9 (CDK9–cyclin T; compound 0.152588 nM, second titration set (r13)): 0.01297 and 0.01342
- Lanthascreen TR-FRET signal (raw ratio), sheet CDK9 (CDK9–cyclin T; compound 0.610352 nM, second titration set (r13)): 0.01434 and 0.01401
- Lanthascreen TR-FRET signal (raw ratio), sheet CDK9 (CDK9–cyclin T; compound 1.02544 nM, first titration set (r1)): 0.01509 and 0.01456
- Lanthascreen TR-FRET signal (raw ratio), sheet CDK9 (CDK9–cyclin T; compound 3.15521 nM, first titration set (r1)): 0.01409 and 0.01238
- Lanthascreen TR-FRET signal (raw ratio), sheet CDK9 (CDK9–cyclin T; compound 9.46563 nM, first titration set (r1)): 0.01419 and 0.01391
- Lanthascreen TR-FRET signal (raw ratio), sheet CDK9 (CDK9–cyclin T; compound 9.76563 nM, second titration set (r13)): 0.01424 and 0.01466
- Lanthascreen TR-FRET signal (raw ratio), sheet CDK9 (CDK9–cyclin T; compound 31.5521 nM, first titration set (r1)): 0.01363 and 0.01274
- Lanthascreen TR-FRET signal (raw ratio), sheet CDK9 (CDK9–cyclin T; compound 39.0625 nM, second titration set (r13)): 0.01378 and 0.01422
- Lanthascreen TR-FRET signal (raw ratio), sheet CDK9 (CDK9–cyclin T; compound 99.3891 nM, first titration set (r1)): 0.01334 and 0.01404
- Lanthascreen TR-FRET signal (raw ratio), sheet CDK9 (CDK9–cyclin T; compound 156.25 nM, second titration set (r13)): 0.01404 and 0.01353
- Lanthascreen TR-FRET signal (raw ratio), sheet CDK9 (CDK9–cyclin T; compound 315.521 nM, first titration set (r1)): 0.01521 and 0.01465
- Lanthascreen TR-FRET signal (raw ratio), sheet CDK9 (CDK9–cyclin T; compound 625 nM, second titration set (r13)): 0.01264 and 0.01274
- Lanthascreen TR-FRET signal (raw ratio), sheet CDK9 (CDK9–cyclin T; compound 2500 nM, second titration set (r13)): 0.01019 and 0.009296
- Lanthascreen TR-FRET signal (raw ratio), sheet CDK9 (CDK9–cyclin T; compound 3155.21 nM, first titration set (r1)): 0.008036 and 0.01025
- Lanthascreen TR-FRET signal (raw ratio), sheet CDK9 (CDK9–cyclin T; compound 10000 nM, second titration set (r13)): 0.006352 and 0.006436
- Lanthascreen TR-FRET signal (raw ratio), sheet CDK9 (CDK9–cyclin T; compound 10002 nM, first titration set (r1)): 0.007034 and 0.007071
- TR-FRET signal (CDK12–cyclin K and DDB1; compound concentration 0.468 nM): 0.3047 and 0.3012
- TR-FRET signal (CDK12–cyclin K and DDB1; compound concentration 2.16 nM): 0.3265 and 0.3171
- TR-FRET signal (CDK12–cyclin K and DDB1; compound concentration 3.6 nM): 0.3554 and 0.3435
- TR-FRET signal (CDK12–cyclin K and DDB1; compound concentration 4.68 nM): 0.2015 and 0.1931
- TR-FRET signal (CDK12–cyclin K and DDB1; compound concentration 7.92001 nM): 0.4106 and 0.4108
- TR-FRET signal (CDK12–cyclin K and DDB1; compound concentration 15.84 nM): 0.4953 and 0.4972
- TR-FRET signal (CDK12–cyclin K and DDB1; compound concentration 21.6 nM): 0.3497 and 0.3693
- TR-FRET signal (CDK12–cyclin K and DDB1; compound concentration 30.96 nM): 0.6975 and 0.7097
- TR-FRET signal (CDK12–cyclin K and DDB1; compound concentration 36 nM): 0.6301 and 0.6713
- TR-FRET signal (CDK12–cyclin K and DDB1; compound concentration 62.6401 nM): 1.033 and 1.024
- TR-FRET signal (CDK12–cyclin K and DDB1; compound concentration 79.2001 nM): 1.054 and 1.091
- TR-FRET signal (CDK12–cyclin K and DDB1; compound concentration 125.28 nM): 1.438 and 1.46
- TR-FRET signal (CDK12–cyclin K and DDB1; compound concentration 158.4 nM): 1.569 and 1.639
- TR-FRET signal (CDK12–cyclin K and DDB1; compound concentration 244.8 nM): 2.039 and 2.019
- TR-FRET signal (CDK12–cyclin K and DDB1; compound concentration 309.6 nM): 2.287 and 2.2
- TR-FRET signal (CDK12–cyclin K and DDB1; compound concentration 626.401 nM): 2.739 and 2.6898
- TR-FRET signal (CDK12–cyclin K and DDB1; compound concentration 993.601 nM): 3.062 and 3.005
- TR-FRET signal (CDK12–cyclin K and DDB1; compound concentration 1252.8 nM): 3.187 and 3.255
- TR-FRET signal (CDK12–cyclin K and DDB1; compound concentration 2001.6 nM): 3.478 and 3.348
- TR-FRET signal (CDK12–cyclin K and DDB1; compound concentration 2448 nM): 3.234 and 3.447
- TR-FRET signal (CDK12–cyclin K and DDB1; compound concentration 9936.01 nM): 3.901 and 3.875
- TR-FRET signal (CDK12–cyclin K and DDB1; compound concentration 20016 nM): 3.981 and 3.769
- EC50 (CDK12–cyclin K and DDB1; in vitro complex formation, 50 nM CDK12–cyclin K, 100 nM DDB1, text and figures, read-out: TR-FRET EC50): 279 ± 12 nM
- EC50 (CDK12–cyclin K and DDB1; sheet MOESM7, read-out: log TR-FRET EC50 (converted)): 279 nM
- EC50 (CDK12–cyclin K and DDB1; source data sheet correlations, read-out: TR-FRET EC50): 279 nM
- Lanthascreen signal, sheet CDK2 (CDK2–cyclin A; Compound 0.038147 nM, experiment r13-r23): 0.01291 and 0.01309
- Lanthascreen signal, sheet CDK2 (CDK2–cyclin A; Compound 0.038147 nM, experiment r48-r58): 0.01261 and 0.01224
- Lanthascreen signal, sheet CDK2 (CDK2–cyclin A; Compound 0.152588 nM, experiment r13-r23): 0.01309 and 0.01357
- Lanthascreen signal, sheet CDK2 (CDK2–cyclin A; Compound 0.152588 nM, experiment r48-r58): 0.01492 and 0.0157
- Lanthascreen signal, sheet CDK2 (CDK2–cyclin A; Compound 0.610352 nM, experiment r13-r23): 0.01337 and 0.01331
- Lanthascreen signal, sheet CDK2 (CDK2–cyclin A; Compound 0.610352 nM, experiment r48-r58): 0.01553 and 0.01443
- Lanthascreen signal, sheet CDK2 (CDK2–cyclin A; Compound 1.02544 nM, experiment r1-r11): 0.008871 and 0.008854
- Lanthascreen signal, sheet CDK2 (CDK2–cyclin A; Compound 3.15521 nM, experiment r1-r11): 0.01028 and 0.01056
- Lanthascreen signal, sheet CDK2 (CDK2–cyclin A; Compound 9.46563 nM, experiment r1-r11): 0.01086 and 0.009918
- Lanthascreen signal, sheet CDK2 (CDK2–cyclin A; Compound 9.76563 nM, experiment r13-r23): 0.01301 and 0.01353
- Lanthascreen signal, sheet CDK2 (CDK2–cyclin A; Compound 9.76563 nM, experiment r48-r58): 0.01491 and 0.01554
- Lanthascreen signal, sheet CDK2 (CDK2–cyclin A; Compound 31.5521 nM, experiment r1-r11): 0.008252 and 0.009758
- Lanthascreen signal, sheet CDK2 (CDK2–cyclin A; Compound 39.0625 nM, experiment r13-r23): 0.01344 and 0.01357
- Lanthascreen signal, sheet CDK2 (CDK2–cyclin A; Compound 39.0625 nM, experiment r48-r58): 0.01615 and 0.01531
- Lanthascreen signal, sheet CDK2 (CDK2–cyclin A; Compound 99.3891 nM, experiment r1-r11): 0.01148 and 0.009734
- Lanthascreen signal, sheet CDK2 (CDK2–cyclin A; Compound 156.25 nM, experiment r13-r23): 0.01338 and 0.01316
- Lanthascreen signal, sheet CDK2 (CDK2–cyclin A; Compound 156.25 nM, experiment r48-r58): 0.01495 and 0.01468
- Lanthascreen signal, sheet CDK2 (CDK2–cyclin A; Compound 315.521 nM, experiment r1-r11): 0.01013 and 0.01019
- Lanthascreen signal, sheet CDK2 (CDK2–cyclin A; Compound 625 nM, experiment r13-r23): 0.01286 and 0.01329
- Lanthascreen signal, sheet CDK2 (CDK2–cyclin A; Compound 625 nM, experiment r48-r58): 0.01515 and 0.01544
- Lanthascreen signal, sheet CDK2 (CDK2–cyclin A; Compound 2500 nM, experiment r13-r23): 0.01297 and 0.01246
- Lanthascreen signal, sheet CDK2 (CDK2–cyclin A; Compound 2500 nM, experiment r48-r58): 0.0142 and 0.01439
- Lanthascreen signal, sheet CDK2 (CDK2–cyclin A; Compound 3155.21 nM, experiment r1-r11): 0.01019 and 0.009543
- Lanthascreen signal, sheet CDK2 (CDK2–cyclin A; Compound 10000 nM, experiment r13-r23): 0.01011 and 0.01128
- Lanthascreen signal, sheet CDK2 (CDK2–cyclin A; Compound 10000 nM, experiment r48-r58): 0.01389 and 0.01345
- Lanthascreen signal, sheet CDK2 (CDK2–cyclin A; Compound 10002 nM, experiment r1-r11): 0.009534 and 0.01103
- IC50 (CDK2–cyclin A; Lanthascreen, average, Extended Data Fig. 8, read-out: CDK2 IC50): > 10000 nM
- IC50 (CDK2–cyclin A; Supplementary Table 2, read-out: Lanthascreen IC50 [nM] CDK2): > 10000 nM
- DC50 [1]: 1210 nM
